Measurements from publication PMC7993727, “Discovery of a novel AR/HDAC6 dual inhibitor for prostate cancer treatment” (Aging (Albany NY), 2021).

What was measured:
[1] = molecular target: T1, HDAC6 (Homo sapiens, UniProt Q9UBN7); test: acetylation of α-tubulin (HDAC6 substrate) in VCaP cells, Western blot; type: cell-based; conditions: 24 hours
T1 sequence (Q9UBN7 1-1215): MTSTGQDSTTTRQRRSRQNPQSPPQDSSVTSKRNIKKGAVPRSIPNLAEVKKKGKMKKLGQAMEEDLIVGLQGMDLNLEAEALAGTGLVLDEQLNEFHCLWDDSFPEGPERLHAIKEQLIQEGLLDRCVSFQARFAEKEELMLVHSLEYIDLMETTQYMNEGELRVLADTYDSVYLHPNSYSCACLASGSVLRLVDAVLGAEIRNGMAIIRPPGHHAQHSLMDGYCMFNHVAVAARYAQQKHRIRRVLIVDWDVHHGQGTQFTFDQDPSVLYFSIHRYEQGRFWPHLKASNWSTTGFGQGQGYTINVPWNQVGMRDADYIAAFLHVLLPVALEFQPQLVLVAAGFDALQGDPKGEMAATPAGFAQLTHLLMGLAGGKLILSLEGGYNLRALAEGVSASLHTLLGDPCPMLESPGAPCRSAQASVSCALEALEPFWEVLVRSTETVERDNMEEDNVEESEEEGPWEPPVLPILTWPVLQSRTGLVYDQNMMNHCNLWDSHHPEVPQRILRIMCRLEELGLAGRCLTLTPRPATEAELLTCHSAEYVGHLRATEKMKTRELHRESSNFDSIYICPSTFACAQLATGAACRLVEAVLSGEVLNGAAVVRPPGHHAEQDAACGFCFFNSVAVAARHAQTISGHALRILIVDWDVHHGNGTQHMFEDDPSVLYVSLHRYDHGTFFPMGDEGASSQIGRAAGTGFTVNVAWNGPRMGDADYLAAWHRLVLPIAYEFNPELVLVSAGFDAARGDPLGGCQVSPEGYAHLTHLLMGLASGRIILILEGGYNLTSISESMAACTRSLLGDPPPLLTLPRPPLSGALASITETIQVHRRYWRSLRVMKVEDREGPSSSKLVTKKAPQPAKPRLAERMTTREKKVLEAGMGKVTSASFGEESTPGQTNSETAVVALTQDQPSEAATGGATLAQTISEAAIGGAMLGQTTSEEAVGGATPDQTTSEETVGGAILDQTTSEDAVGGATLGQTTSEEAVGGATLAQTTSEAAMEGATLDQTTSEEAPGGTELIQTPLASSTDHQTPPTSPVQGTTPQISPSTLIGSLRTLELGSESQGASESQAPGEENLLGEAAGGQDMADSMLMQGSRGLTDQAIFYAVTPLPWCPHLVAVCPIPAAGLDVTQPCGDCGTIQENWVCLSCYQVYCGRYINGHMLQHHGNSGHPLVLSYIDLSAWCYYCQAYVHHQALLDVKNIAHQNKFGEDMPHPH
Experimental: (§1) RNA expression level was analyzed by qRT-PCR and protein expression level was analyzed by Western blot. […] (I) Representative immunofluorescence microscopic images of VCaP cells for checking the subcellular localization of AR.
To evaluate the HDAC6 inhibition ability of Zeta55 in VCaP cells, the acetylation status of α-tubulin protein (a HDAC6 substrate) was assessed using western blot. […] We assessed the protein level of AR in VCaP cells.
The whole-cell extracts were prepared in lysis buffer with a protease inhibitor cocktail (Bimake), while the xenograft tissue extracts were prepared in 0.5% Nonidet P 40 Substitute solution (Biosharp) with cocktail protease inhibitor (Bimake). Each sample containing 30 μg of total protein was loaded onto 10% SDS-PAGE and electrotransferred onto polyvinylidene fluoride membranes. The membranes were blocked with 5% skimmed milk in PBST at room temperature for 2 hours and incubated with primary antibodies at 4° C overnight. After the membranes were washed with PBST three times, they were incubated with horseradish peroxidase-conjugated anti-rabbit or anti-mouse secondary antibody at room temperature for 1 hour. Chemiluminescent detection was performed with WesternBright ECL (Advansta). The immunoblots were visualized using the FluorChem FC3 system (ProteinSimple).

[2] = test system: TMPRSS2; test: TMPRSS2 mRNA (qRT-PCR) and protein (Western blot) expression in VCaP cells; type: cell-based; conditions: 10 nM DHT, 24 hours
Experimental: as §1
(§2) The RNA of VCaP cells was extracted using a Simply P Total RNA Extraction kit (Bioer technology) and cDNA was synthesized using a SMARTer PCR cDNA Synthesis Kit (Clontech). PSA and β-actin primers were synthesized by Sangon Biotech according to previous literature. Real-time PCR was performed using the PowerUp SYBR™ Green kit (ThermoFisher). The PCR program was run on a LightCycler 480II (Roche) and set as follows: 2 minutes at 95° C followed by 40 cycles of 30 seconds at 95° C, 15 seconds at 60° C and 30 seconds at 72° C. Data were quantified using the 2-ΔΔCt method based on the Ct values of PSA and β-actin from two parallel experiments performed in triplicate.
(§3) The whole-cell extracts were prepared in lysis buffer with a protease inhibitor cocktail (Bimake), while the xenograft tissue extracts were prepared in 0.5% Nonidet P 40 Substitute solution (Biosharp) with cocktail protease inhibitor (Bimake). Each sample containing 30 μg of total protein was loaded onto 10% SDS-PAGE and electrotransferred onto polyvinylidene fluoride membranes. […]

[3] = parameters: method as in PMID 27590197; conditions: rats; cited from earlier work
[4] = test system: PSA; test: PSA mRNA (qRT-PCR) and protein (Western blot) expression in VCaP cells; type: cell-based; conditions: 10 nM DHT, 24 hours
Experimental: as §1, §2, §3

## CNC(=O)c1ccc(N2C(=S)N(c3ccc(C#N)c(C(F)(F)F)c3)C(=O)C2(C)C)cc1F [MDV3100, reference compound]
[1]
  α-tubulin acetylation: did not
[2]
  DHT-induced endogenous mRNA and protein expression of TMPRSS2: significantly suppressed
[3]
  oral bioavailability: 97%
  plasma half-life: 8.56 h
[4]
  DHT-induced endogenous mRNA and protein expression of PSA: significantly suppressed
